Values quoted from earlier work, collected in US20050107279A1, “Emulsion composition” (Unilever Home & Personal Care USA, Division of Conopco, Inc., priority 2003, published 2005).

Key:
[1] = AOT; range as per Sabatini et al. 1996
[2] = hydrophobic liquid
[3] = hydrophobic liquid; remark: listed apart in the source

| solubility in water [2] | Log P [3] | SMILES | HLB [1] |
| --- | --- | --- | --- |
|  |  | CCCCC(CC)COC(=O)CC(C(=O)OCC(CC)CCCC)S(=O)(=O)[O-].[Na+] (stereo not drawn) [AOT, Aerosol OT] | 10-14.9) |
| Solubility = 7 × 10^−5% | (Log P = 4.7) | CCCCCCCC [Octane] |  |
